Measured values taken from US12285392B2, “Method for modulating metabolism” (Brightseed, Inc., priority 2018, dated 2025).

Columns and labels:
[1] = tested on: HepG2 cells; assay: Lipid clearance in HepG2 cells (steatosis assay, Oil Red O); format: cell-based; conditions: HepG2 liver cells, 20 μM
Experimental: Lipid Clearance in HepG2 and T6PNE Cells (Steatosis Assay). The steatosis assay was carried out as described (Kiselyuk, et al. (2012) Chem. Biol. 19(7):806-818) with the exception of the drug concentration, which was 20 μM for N-trans-caffeoyltyramine with 0.25 mM palmitate in HepG2 cell lines, and 10 μM of either N-trans-caffeoyltyramine, N-trans-caffeoyltyramine, or pcoumaroyltyramine, with 0.25 mM palmitate in T6PNE cell lines. Steatosis was assessed using the Oil Red 0 Method for Fats kits (Poly Scientific; Warrington, PA), per manufacturer's guidelines. Briefly, frozen tissue slides or fixed cells were incubated in neat propylene glycol for 2 minutes and Oil Red 0 solution for 15 hours for slides or 1 hour for fixed cells, differentiated in 85% propylene glycol solution for 1 minute, washed twice with distilled water and stained in Hematoxylin of 10 seconds. Slides were mounted with glycerin jelly mounting medium.

[2] = Hepatic microsome stability assay, rat; format: in vitro ADME; conditions: rat microsomes
Experimental: Hepatic Microsome Assay. Hepatic microsomes stability assays were performed in accordance with known methods (Peddibhotla, et al. (2013) ACS Med. Chem. Lett. 4:846-851). Briefly, 3 μL of 25 μM compound solution in acetonitrile were incubated with 123 μL of mouse, human or rat liver microsomes (Xenotech, Kansas City, Kans.). […] The microsomal concentrations used were 1.0 mg/mL. Compounds were incubated in microsomes for 0, 5, 15, 30 and 60 minutes. The reactions were stopped by the addition of ice cold ACN and the reaction mixtures were centrifuged at 10,000 g for 10 minutes before the supernatant was removed for analysis. A 10 μL portion of the resulting extract was injected on a Thermo HPLC system equipped with PAL CTC plate sampler (96-well plate), Dionex Ultimate 3000 binary pump (flow rate at 0.600 mL/min), Dionex Ultimate 3000 thermostatted column compartment (temperature at 40° C.), Thermo Endura Mass Spectrometer (ESI source), using a Thermo Scientific Accucore C18 (2.6 μM, 2.1×50 mm) column. A gradient was run starting at 95% H2O (0.1% formic acid) and 5% ACN (0.1% formic acid) during the first 0.5 min, then under gradient condition of 5-100% ACN (0.1% formic acid) from minute 0.5 to 3.5, finishing at 95% H2O (0.1% formic acid) and 5% ACN (0.1% formic acid) over 0.5 min, with another 1 min at 95:5 to re-equilibrate.

[3] = tested on: HNF4α mRNA; assay: HNF4α mRNA levels by quantitative PCR; format: cell-based; conditions: FIG. 3
Experimental: (§1) Expression of Insulin and HNF4α. RNA was purified using a RNEASY® chromatographic separation and isolation kits (Qiagen), and converted to cDNA using the gScript™ cDNA SuperMix (Quanta Biosciences). Q-PCR was conducted with cDNA corresponding to 2 μg of RNA using an Opticon Real-Time System (MJ Research) and QPCR SuperMix (BioPioneer). See All mRNA values were normalized to 18S rRNA values and are expressed as fold changes over vehicle-treated control.

[4] = tested on: estrogenic activity; assay: Counter-screen for estrogenic activity (E47MER luciferase reporter in HeLa cells); format: cell-based, human; conditions: FIG. 5
Experimental: Counter-Screen for Estrogenic Activity. Estrogenic activity was monitored by co-transfection of a reporter plasmid containing a multimerized E-box 5′ of a minimal promoter fused to the Firefly luciferase gene (4RTK-luc) with wild-type E47 or E47MER (Kiselyuk, et al. (2010) J. Biomol. Screen 15(6):663-70). HeLa cells were transfected using polyethylenimine, 0.2 μg 4RTK-Luc plasmid and either 0.3 μg of human E47, E47MER or pMSCVhph vector in 50 μl of serum-free Dulbecco's modification of Eagle medium per well. Transfections included Renilla luciferase (pRL-TK) plasmid as a control for transfection efficacy. Transfection conditions were as described in the PPRE-Luc reporter assay of Kiselyuk, et al. ((2010) J. Biomol. Screen 15(6):663-70). Sixteen hours after transfection, culture media were changed and maintained for 48 hours with tamoxifen and/or compound or vehicle (DMSO). Cells were then lysed and assayed for luciferase activity using the Promega DUAL-LUCIFERASE® reporter assay kit (Promega Corp., Madison, WI), and luminescence was measured using the Veritas™ Microplate Luminometer (Turner Biosystems, Sunnyvale, CA). Data were normalized to Renilla luciferase (pRL-TK) and expressed as fold-change over vehicle alone.

[5] = tested on: insulin mRNA; assay: Insulin mRNA levels by quantitative PCR; format: cell-based; conditions: FIG. 2
Experimental: as §1

O=C(/C=C/c1ccc(O)c(O)c1)NCCc1ccc(O)cc1 [N-trans-caffeoyltyramine]
Clearing of fats (Oil Red O staining) [1]: capable of clearing harmful fats from the liver
Accumulation of fats ([1]; 0.25 mM palmitate): inhibited accumulation of fats
% Remaining ([2]; 1 μM): 0.6%
% Remaining ([2]; 10 μM): 33.6%
HNF4α gene expression [3]: upregulated
Estrogenic activity [4]: did not exhibit estrogenic activity
Insulin gene expression [5]: upregulated
